Reference: patent publication US10424806B2, “Organic non-aqueous cation-based redox flow batteries” (UCHICAGO ARGONNE, LLC, priority 2012, dated 2019)

Tests used:
[1] = Cyclic voltammetry in Pt/Na/Na cell with sodium electrolyte; assay type: physicochemical; settings: NaPF6 in propylene carbonate
Method: The redox materials described herein also can be utilized with sodium-based electrolyte salts. For example, FIG. 22(a) provides a cyclic voltammogram obtained with about 17 mM DBBB in 0.247 M Na PF6 in propylene carbonate, in a Pt/Na/Na cell at scan rates of 5, 20, 50, and 100 mV/s. FIG. 22(b) provides a cyclic voltammogram obtained with about 13 mM 2,3,6-trimethylquinoxaline in 0.217 M NaPF6 in propylene carbonate at a 20 mV/s scan rate.

[2] = Solubility in solvent or electrolyte; assay type: physicochemical
[3] = Cyclic voltammetry in Pt/Li/Li three-electrode cell; assay type: physicochemical; settings: for redox properties from cyclic voltammogram: lithium electrolyte and concentration differ per compound; for performance compared with quinoxaline: 0.005 M in Electrolyte B; for Potential: 10 mM in 1.2 M LiPF6 in EC/EMC (3:7 by weight), Pt/Li/Li
Method: The upper and lower redox potentials shown in FIG. 5 were determined by a combination of average peak potential and graphical analysis of the cyclic voltammograms over a range of scan rates (5, 10, 20, 50, 100, and 200 mV/s).
Cyclic voltammetry (CV) were performed in a custom-made airtight three-electrode electrochemical cell with a 2-mm diameter platinum disk working electrode and lithium metal counter and reference electrodes. Prior to use, the platinum disk electrode was dipped in nitric acid solution (about 50 vol % HNO3, Ricca Chemical Company) and then polished on a MICROCLOTH® pad with 0.3 μm and 0.05 μm alumina (Buehler Ltd., Lake Bluff, Ill.). After polishing, the electrode was thoroughly rinsed with distilled water and dried with house nitrogen. The electrochemical cell was then assembled in an Argon-filled glove box and transferred out to perform measurements. […] All evaluations were performed in triplicate at room temperature.
The redox potential of DBBB was calculated by averaging the oxidation and reduction peak potentials in the two different electrolytes at various scan rates (5, 10, 20, 50, 100, and 200 mV/s). […] The shift in the peak potential with the scan rate may be caused by the limited charge-transfer kinetics of the active species (DBBB) and the uncompensated resistance, which is commonly called the “iR drop”. Because the polarization from the kinetic effect and iR drop is triggered by the current flowing through the electrochemical cell, the average peak potential [(Epa+Epc)/2] gives a good estimation of the redox potential of the reversible electroactive species. […] Evaluations were performed in triplicate in a Pt/Li/Li cell at room temperature.

[4] = Diffusion coefficient from Randle-Sevcik measurements; assay type: physicochemical
Method: 2,5-Di-tert-butyl-1,4-bis(2-methoxyethoxy)benzene (“DBBB”) is a redox material developed at Argonne National Laboratory for overcharge protection in Li-ion batteries. […] The diffusion coefficient of DBBB was determined to be about 1.30×10^−6 cm^2/s in the battery electrolyte based on Randle-Sevcik measurements. However, Electrolyte A is non-ideal for flow battery applications due to high volatility, extreme moisture sensitivity, and high materials cost. Thus, an electrolyte consisting of 0.2 M LiBF4 in propylene carbonate (“Electrolyte B”) was also investigated as a more robust and lower cost alternative. FIG. 2b show iR-corrected cyclic voltammograms of 0.005 M DBBB in Electrolyte A and in Electrolyte B at a scan rate of 20 mV/s. […] Thus, 2,5-di-tert-butyl-1,4-dialkoxybenzene compounds, such as DBBB, are active in different electrolyte systems, and the performance of these materials can be tailored by the choice of the electrolyte composition.

[5] = Li-ion cell, 100% overcharge; cited from earlier work
[6] = Intrinsic capacity and energy density (Table 1); assay type: physicochemical
Excerpt: Table 1 provides a summary of the useful redox properties of these compounds.

Cc1ccc2nc(C)c(C)nc2c1 [2,3,6-trimethylquinoxaline]
redox properties from cyclic voltammogram [1]: suitable reversible redox properties

Oc1nc2ccccc2nc1O [2,3-Dihydroxyquinoxaline]
solubility in electrolyte solution ([2]; Electrolyte B): not soluble

BrCc1nc2ccccc2nc1CBr [2,3-bis(bromomethyl)quinoxaline]
redox activity ([3]; Electrolyte B): no redox activity was observed

CC(=O)c1cnc2ccccc2n1 [2-Acetylquinoxaline]
redox activity ([3]; Electrolyte B): some redox activity
separation of oxidation and reduction events ([3]; Electrolyte B): about 1 V

FC(F)(F)c1cnc2ccccc2n1 [2-trifluoromethylquinoxaline]
redox activity ([3]; Electrolyte B): no redox activity was observed

CN1c2ccccc2N(C)c2ccccc21 [5,10-dihydro-5,10-dimethylphenazine]
redox properties from cyclic voltammogram ([3]; Pt/Li/Li cell): suitable redox properties

Cc1cccc2nccnc12 [5-methylquinoxaline]
performance compared with quinoxaline ([3]; Pt/Li/Li cell): lower activity

Cc1cc2nc(-c3ccccn3)c(-c3ccccn3)nc2cc1C [6,7-dimethyl-2,3-di(2-pyridyl)quinoxaline]
lower redox potential ([3]; Electrolyte B, Pt/Li/Li cell, average peak potential method): about 2.6 V

Cc1ccc2nccnc2c1 [6-methylquinoxaline]
performance compared with quinoxaline ([3]; Pt/Li/Li cell): slightly better performance than quinoxaline

Fc1c(F)c(F)c2c(c1F)OCCO2 [Compound 5]
redox properties from cyclic voltammogram ([3]; Pt/Li/Li cell): redox properties suitable for use as redox reactants for the positive electrolyte

Fc1ccc(B2Oc3c(F)c(F)c(F)c(F)c3O2)c(F)c1 [Compound 6]
redox properties from cyclic voltammogram ([3]; Pt/Li/Li cell): redox properties suitable for use as redox reactants for the positive electrolyte

Fc1c(F)c(F)c2c(c1F)OB(c1cc(C(F)(F)F)ccc1C(F)(F)F)O2 [Compound 7]
redox properties from cyclic voltammogram ([3]; Pt/Li/Li cell): redox properties suitable for use as redox reactants for the positive electrolyte

Fc1c(F)c(F)c(B2Oc3c(F)c(F)c(F)c(F)c3O2)c(F)c1F [Compound 8]
redox properties from cyclic voltammogram ([3]; Pt/Li/Li cell): redox properties suitable for use as redox reactants for the positive electrolyte

COCCOc1cc(C(C)(C)C)c(OCCOC)cc1C(C)(C)C [DBBB, 2,5-Di-tert-butyl-1,4-bis(2-methoxyethoxy)benzene]
redox potential, average of anodic and cathodic potentials [(Epa+Epc)/2] ([3]; 0.005 M in Electrolyte A (1.2 M LiPF6 in EC/EMC 3/7 by volume), room temperature): about 3.927 V vs. Li/Li^+
redox potential ([3]; 0.005 M in Electrolyte B (0.2 M LiBF4 in propylene carbonate), room temperature): 4.022 V vs. Li/Li^+
diffusion coefficient ([4]; Electrolyte A): about 1.30×10^−6 cm^2/s
diffusion coefficient ([4]; Electrolyte B): about 1.53×10^−6 cm^2/s
redox properties from cyclic voltammogram [1]: suitable reversible redox properties
potential at which active in overcharge protection [5]: about 4.0 V vs. Li/Li^+

c1ccc2nccnc2c1 [Quinoxaline]
solubility ([2]; organic solvent or mixture, in propylene carbonate): ≥ 2000 mM

COCCOc1c(F)c(F)c(OCCOC)c(F)c1F [TFBMEB, 1,2,4,5-tetrafluoro-3,6-bis(2-methoxyethoxy)benzene]
Potential [3]: 4.70 V vs. Li/Li
Energy Density [6]: 422.5 Wh/Kg
Intrinsic Capacity [6]: 89.9 mAh/g

CCOc1c(F)c(F)c(OCC)c(F)c1F [TFDEB, 1,2,4,5-tetrafluoro-3,6-diethoxybenzene]
Potential [3]: 4.63 V vs. Li/Li
Energy Density [6]: 520.9 Wh/Kg
Intrinsic Capacity [6]: 112.5 mAh/g

COc1c(F)c(F)c(OC)c(F)c1F [TFDMB, 1,2,4,5-tetrafluoro-3,6-dimethoxybenzene]
Potential [3]: 4.70 V vs. Li/Li
Energy Density [6]: 599.7 Wh/Kg
Intrinsic Capacity [6]: 127.6 mAh/g

O=C(c1ccccc1)c1ccccc1 [benzophenone]
redox properties from cyclic voltammogram ([3]; Pt/Li/Li cell): suitable redox properties

[Cl-].[Cl-].c1ccc(C[n+]2ccc(-c3cc[n+](Cc4ccccc4)cc3)cc2)cc1 [bis-benzyl-4,4′-bipyridinium dichloride]
redox properties from cyclic voltammogram ([3]; Pt/Li/Li cell): suitable redox properties
